Measured values from US20090170940A1 (priority 2007, published 2009).
Structures can show the parent of a compound that is named as a salt.

Legend:
humans = settings: cited from earlier work

SMILES | % Eclosion (nematode eggs) [%] | amount that can be fatal (humans) [mL]
CCOC=O [ethyl formate] | 0.05 | –
CNC(=O)Oc1cccc2c1OC(C)(C)C2 [Furadan, 2,3-dihydro-2,2-dimethyl-7-benzofuranyl methylcarbamate] | 0.05 | 1
